Data reported in article PMC2099433, “The binding site for neohesperidin dihydrochalcone at the human sweet taste receptor” (BMC Structural Biology, 2007).
Where a chain is given by its changes, count along the chain named. Where a SMILES comes first, the peptide text is derived from it.

Experiments:
[1] = target: T1, hTAS1R2 + hTAS1R3 T724L^5.37 (Homo sapiens, UniProt Q7RTX0+Q8TE23, T724L); assay: Calcium response (FLIPR), hTAS1R3 mutant coexpressed with hTAS1R2; format: cell-based; conditions: variant T724L^5.37; for Emax: read-out: maximal signal (% of wt)
T1 construct: expressed in transfected cells; host or cells: HEK293T cells stably expressing G16Gust44
T1 sequence (Q7RTX0 21-852 T724L): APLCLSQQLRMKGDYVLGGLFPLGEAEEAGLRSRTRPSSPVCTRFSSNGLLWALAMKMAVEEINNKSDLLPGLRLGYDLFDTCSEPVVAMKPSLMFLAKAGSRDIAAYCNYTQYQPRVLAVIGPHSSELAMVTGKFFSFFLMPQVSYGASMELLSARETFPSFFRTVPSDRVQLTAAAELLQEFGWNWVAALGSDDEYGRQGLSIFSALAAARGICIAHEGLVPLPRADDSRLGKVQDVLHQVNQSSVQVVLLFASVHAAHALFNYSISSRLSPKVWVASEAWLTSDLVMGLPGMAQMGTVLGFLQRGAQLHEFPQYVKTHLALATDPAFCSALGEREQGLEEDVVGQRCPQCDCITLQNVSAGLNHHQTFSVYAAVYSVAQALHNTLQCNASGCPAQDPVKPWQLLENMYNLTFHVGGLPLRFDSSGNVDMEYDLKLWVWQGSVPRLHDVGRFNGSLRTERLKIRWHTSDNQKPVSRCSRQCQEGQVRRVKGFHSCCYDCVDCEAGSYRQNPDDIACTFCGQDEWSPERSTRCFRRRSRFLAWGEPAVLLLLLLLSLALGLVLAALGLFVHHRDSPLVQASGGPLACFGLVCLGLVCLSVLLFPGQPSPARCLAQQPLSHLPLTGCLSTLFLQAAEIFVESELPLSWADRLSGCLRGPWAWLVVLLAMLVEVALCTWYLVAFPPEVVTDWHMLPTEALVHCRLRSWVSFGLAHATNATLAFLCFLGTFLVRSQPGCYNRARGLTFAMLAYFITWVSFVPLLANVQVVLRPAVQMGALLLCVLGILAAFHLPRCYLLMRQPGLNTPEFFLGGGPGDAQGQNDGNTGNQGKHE
T1 sequence (Q8TE23 20-839): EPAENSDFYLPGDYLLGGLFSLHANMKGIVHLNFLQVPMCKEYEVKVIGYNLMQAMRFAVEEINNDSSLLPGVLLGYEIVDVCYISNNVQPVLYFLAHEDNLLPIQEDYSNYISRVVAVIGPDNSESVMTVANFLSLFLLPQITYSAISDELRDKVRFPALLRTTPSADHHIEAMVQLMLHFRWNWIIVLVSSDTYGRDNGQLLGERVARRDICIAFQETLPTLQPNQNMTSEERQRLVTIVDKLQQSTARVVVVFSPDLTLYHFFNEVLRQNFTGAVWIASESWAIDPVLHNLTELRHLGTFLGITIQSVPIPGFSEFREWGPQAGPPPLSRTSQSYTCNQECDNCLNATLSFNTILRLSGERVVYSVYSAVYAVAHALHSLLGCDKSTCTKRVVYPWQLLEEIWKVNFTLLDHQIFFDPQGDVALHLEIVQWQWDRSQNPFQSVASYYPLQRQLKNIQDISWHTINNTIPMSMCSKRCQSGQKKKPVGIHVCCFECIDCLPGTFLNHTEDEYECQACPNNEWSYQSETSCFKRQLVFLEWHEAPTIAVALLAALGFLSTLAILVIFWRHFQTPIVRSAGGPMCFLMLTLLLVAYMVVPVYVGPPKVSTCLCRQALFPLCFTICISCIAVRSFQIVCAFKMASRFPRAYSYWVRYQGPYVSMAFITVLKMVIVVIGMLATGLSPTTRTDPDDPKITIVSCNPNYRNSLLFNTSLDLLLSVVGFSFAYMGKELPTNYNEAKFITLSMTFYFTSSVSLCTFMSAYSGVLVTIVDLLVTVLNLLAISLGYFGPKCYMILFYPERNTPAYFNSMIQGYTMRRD
Method in brief: (§1)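 Calcium mobilization was measured by FLIPR in Fluo4-AM-loaded HEK293T cells coexpressing G16Gust44 with the tagged receptor pair. Signals had mock responses removed and were given as ΔF/F.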

[2] = target: T2, hTAS1R2 + hTAS1R3 Q637E^3.29 (Homo sapiens, UniProt Q7RTX0+Q8TE23, Q637E); assay: as above; format: cell-based; conditions: variant Q637E^3.29; for Emax: read-out: maximal signal (% of wt)
T2 construct: expressed in transfected cells; host or cells: HEK293T cells stably expressing G16Gust44
T2 sequence (Q8TE23 20-839): T1 sequence (Q8TE23 20-839)
T2 sequence (Q7RTX0 21-852 Q637E): T1 sequence (Q7RTX0 21-852 T724L) with Q617E, L704T
Method in brief: as §1

Row | SMILES | EC50 [1] | Emax [1] | EC50 [2] | Emax [2]
1 | COc1ccc(CCC(=O)c2c(O)cc(O[C@@H]3O[C@H](CO)[C@@H](O)[C@H](O)[C@H]3O[C@@H]3O[C@@H](C)[C@H](O)[C@@H](O)[C@H]3O)cc2O)cc1O [NHDC, neohesperidin dihydrochalcone] | 500 ± 300 µM | 58 ± 60% | 1500 ± 400 µM | 51 ± 13%
2 | COC(=O)[C@H](Cc1ccccc1)NC(=O)[C@@H](N)CC(=O)O [aspartame] (HELM PEPTIDE1{D.F.[CO[*:1]]}$$$$V2.0) | 1500 ± 200 µM | 69 ± 2% | 1700 ± 200 µM | 51 ± 10%
